One experiment relates to E. coli. As to the kind of experiment: Antimicrobial activity (MIC / FIC index) of extracts and nisin. It counts as cell-based. Particulars: nisin alone. As for the experimental part:
(§1) The antimicrobial activity of the composition according to the invention has been assessed in relation to gram-positive and gram-negative bacteria, as well as fungi and yeast, by means of in vitro susceptibility testing with the antimicrobial dilution method (CLSI protocols—Clinical and Laboratory Standards Institute), as a result of which the MIC (Minimum Inhibitory Concentration) was determined for each of the microorganisms in question.
(§2) For all the tests carried out, a positive control for the antimicrobial activity was carried out by using fluconazole (for fungi and yeasts) and ceftriaxone (for bacterial strains) and a negative control (no compounds) in which the correct microbial growth was assessed.
(§3) The FIC index is determined using the following formula:
(§4) FIC Index>1=> no synergistic effect
(§5) In this example, the antimicrobial activity of the individual natural extracts was first assessed as follows:
(§6) The antimicrobial activity of the individual natural extracts was then assessed in association with the composition according to the invention in Example 8:
(§7) The interaction of the composition in Example 8 with other natural antimicrobial peptides, such as nisin, was assessed.
(§8) After determining the antimicrobial activity of nisin alone, the antimicrobial activity of nisin was assessed in association with the composition according to the invention: […]

The subject of a further experiment is S. aureus. The experiment is described as above. It counts as cell-based. Particulars: nisin alone. As for the experimental part: as §1, §2, §3, §4, §5, §6, §7, §8

For the substance nisin, the results for the MIC entry in the experiment with E. coli and in the experiment with S. aureus were “E. coli - 18750 UI/ml” and “S. aureus - 17 UI/ml”, respectively.
